Assays:
[1] = tested on: LPS induced acute lung inflammation; assay: Example 1: LPS induced acute lung inflammation, interalveolar septa distance; assay type: in vivo, mice; conditions: for Interalveolar space (average spatial distance for the interalveolar septa): 6-week course, then single intranasal LPS
Text: LPS administration is known to promote inflammation through various mechanisms including secretion of pro-inflammatory cytokines, eicosanoids and induction of ROS. This example employed LPS to ascertain the extent of inflammation arising from ROS induced oxidation of H-AA versus D-AA in the lungs of mice. Specifically, four groups of mice were used. The first group was control mice treated with H-LA control mice. The second group of mice received a 6-week course of D-LA. It is understood that in vivo conversion of a portion of both H-LA and D-LA occurs to provide for AA and 13,13-D2-AA respectively. The third group of mice received a 6-week course of H-AA. The fourth group of mice received a 6-week course of D-AA. All groups then received a single intranasal administration of LPS to induce acute lung inflammation. The degree of the inflammatory response was based on the interalveolar septa distance where the larger the distance of the septa, the greater the degree of inflammation. The animals were sacrificed and the interalveolar septa distance was measured. Table 1 provides an average degree of spatial distance for the interalveolar septa for the results of all groups.

[2] = human, in vivo, po; cited from earlier work
LPS-treated mice lungs = assay: Example 5: H-LA / D2-LA by oral gavage, then intranasal LPS, lung histology; assay type: in vivo, BALB/c mice; conditions: 6 weeks of H-LA or D2-LA, then 1 mg/kg intranasal LPS, 24 hours
Procedure: (§1) Lung, stomach and colon samples were fixed with 4% formaldehyde (freshly prepared from paraformaldehyde), paraffin embedded and cut into 2-4 μm sections. For routine histology, all fixed tissue sections were stained with hematoxylin-eosin (H&E). All slides were evaluated at 10 fields each using a Genetic Pro Bino light microscope (A) and photographed with a digital camera (Delta Optical). Stomach and colon tissue sections were analyzed for signs of active and chronic inflammation, formation of lymph follicles, and hyperplasia of epithelial cells. The severity of lung injury was scored according to lung pathological changes, including interalveolar and perivascular hemorrhages, peri-vascular and peribronchial infiltration, perivascular edema, thickness of alveolar wall, alveolar space value, and emphysematous transformations. Lung tissue samples were additionally stained with commercially available Martius Scarlet Blue (MSB) stain kit (Avantik, USA) for fibrin visualization. The presence of homogeneous fibrin masses of yellow, pink or red color in the lung blood vessels were interpreted as thrombotic masses.
In our first experiment, we evaluated the effects of linoleic acid (LA) supplementation on interalveolar septa thickness and AS in LPS-treated mice. […]

[3] = tested on: LPS induced acute lung inflammation; assay: Example 2: LPS induced inflammation, H-AA versus D-AA, male and female mice; assay type: in vivo; conditions: 6-week course, then single intranasal LPS
Procedure: LPS administration was conducted as per Example 1 above except that four groups of mice were used. The first two groups (1 and 2) were control mice (male and female). The next two groups (3 and 4) of mice received a 6-week course of H-AA (male and female). Finally, the last two groups (5 and 6) of mice received a 6-week course of D6-AA (second group). Groups 3, 4, 5 and 6 then received a single intranasal administration of LPS to induce acute lung inflammation. The degree of the inflammatory response was determined per Example 1. Next, the height and distance of the interalveolar septa was determined to provide for the surface area of the inflammation.

healthy mice = conditions: in vivo
Procedure: (§2) Mouse diet was from Research Diets (New Brunswick, NJ) based on fat-free AIN-93G. Fat was added at 11.3% by weight total fat and 0.25% either normal H-AA or D-AA respectively (Table 5).
Male and Female BALB/c and C57BL/6 mice were provided with standard environmental conditions i.e., 22±1° C., 55±5% humidity and 12 h light/dark cycle with free food and water access. At the age of six weeks, animals were split into 8 groups (n=160 total, 20 of each gender) and were continuously fed ad libitum on the diet containing either H-AA or D-AA for 2, 4, 6 or 8 weeks at the daily rate of ca. 5 g of diet per mouse for the duration of the study. The other two groups of animals (n=40, 20 of each gender) received neither PUFA-enriched diets nor LPS served as controls. The body weight and food intake were measured once a week. After completing the appropriate diet course, half of the mice in each group (10 females and 10 males) (i) underwent the procedure of bronchoalveolar lavage (BAL) to accomplish cytological smears, (ii) were subjected to tissue harvesting and collection of colon contents (after humane euthanasia with lethal dose of sodium thiopental, 100 mg/kg intravenously). On the ninth week of this diet course, the other half of the group was administered 1 mg/kg of intranasal (IN) LPS from Escherichia coli O111:B4 (Sigma Aldrich) 24 hours prior to BAL and subsequent euthanasia. 40 D-AA fed animals (20 males, 20 females) were switched to the H-AA diet for washout experiments. […]
as §1, with “masses. […]” for “masses.”
Cell free BAL fluid supernatants as well as colon tissue samples were analyzed using commercially available Mouse IL-1B ELISA Kit (R&D systems, Lot P265854, USA) and the Biotek ELx-808 microplate reader (Biotek, USA) according to the instructions recommended by the manufacturer).

[4] = tested on: LPS-induced acute lung injury; assay: Example 5: response to intranasal LPS in mice fed AA diets (ALI model); assay type: in vivo, BALB/c and C57BL/6 mice
Procedure: as §2
Male and Female BALB/c and C57BL/6 mice were provided with standard environmental conditions i.e., 22±1° C., 55±5% humidity and 12 h light/dark cycle with free food and water access. At the age of six weeks, animals were split into 8 groups (n=160 total, 20 of each gender) and were continuously fed ad libitum on the diet containing either H-AA or D-AA for 2, 4, 6 or 8 weeks at the daily rate of ca. 5 g of diet per mouse for the duration of the study. The other two groups of animals (n=40, 20 of each gender) received neither PUFA-enriched diets nor LPS served as controls. The body weight and food intake were measured once a week. After completing the appropriate diet course, half of the mice in each group (10 females and 10 males) (i) underwent the procedure of bronchoalveolar lavage (BAL) to accomplish cytological smears, (ii) were subjected to tissue harvesting and collection of colon contents (after humane euthanasia with lethal dose of sodium thiopental, 100 mg/kg intravenously). On the ninth week of this diet course, the other half of the group was administered 1 mg/kg of intranasal (IN) LPS from Escherichia coli O111:B4 (Sigma Aldrich) 24 hours prior to BAL and subsequent euthanasia. 40 D-AA fed animals (20 males, 20 females) were switched to the H-AA diet for washout experiments.
Cell differential counts were performed on smear slides from resuspended cell pellets of BAL, using commercially available May-Grünwald-Giemsa staining kits. All slides were evaluated in a light microscope (Optec BK5000) at ×200 magnification. These cell counts such as lymphocytes, neutrophils, plasmacytes and macrophages were obtained from 10 fields of each slide.
as §1
We challenged mice fed AA-diets for 6 weeks using LPS treatment. […] Perivascular edema, signs of thrombosis, alveolar wall thickening, irregular distribution of air spaces, and focal areas of alveolar hemorrhage were also observed. We preferred intranasal administration to the more extreme intratracheal route that induces IL-1β which in turn amplifies inflammation making it difficult to distinguish between the early and late consequences of the LPS challenge. Indeed, 24 hours after intranasal administration of LPS at a dose of 1 mg/kg, there was no significant increase in the IL-1B content in BAL fluid or colon homogenates compared to animals not treated with LPS regardless of type or duration of the diets. Intranasal LPS 24 hours post administration increased neutrophils in BAL fluid in all treated groups regardless of gender or form of AA diets.

Row | SMILES | Interalveolar space (average spatial distance for the interalveolar septa) [1] [μm] | reduction in the spatial distance for the interalveolar septa ([1]; D-LA relative to H-LA, comparator for D-AA not stated) [%] | safety record [2] | alveolar wall / interalveolar septum thickness (in words) (LPS-treated mice lungs) | Interalveolar space ([3]; female mice) [μm] | Interalveolar surface area ([3]; female mice) [μm^2] | Interalveolar space ([3]; male mice) [μm] | Interalveolar surface area ([3]; male mice) [μm^2] | alveolar wall thickness, H-AA versus D-AA cohorts (healthy mice; both, BALB/c and C57BL/6, mouse, 8 weeks) | alveolar spaces (healthy mice; mouse) | average thickness of interalveolar septa, H-AA versus D-AA (healthy mice; mouse) | tolerability (healthy mice; mouse) | LPS-induced interalveolar septa / wall thickening (in words) ([4]; 6-week diet, then single intranasal LPS) | LPS-induced lung tissue damage, inflammation and emphysema (in words) ([4]; dietary consumption prior to LPS exposure)
1 | [2H]C([2H])(/C=C\CCCCC)/C=C\CCCCCCCC(=O)O [D-LA, 11,11-D2-Linoleic Acid] | 10.7 | ~25 | impressive safety record | small, but statistically significant decrease |  |  |  |  |  |  |  |  |  | 
2 | CCCCC/C=C\C/C=C\C/C=C\C/C=C\CCCC(=O)O [H-AA, arachidonic acid, reference compound] | 9.1 |  |  |  | ~9.7 | ~380 | ~8.1 | ~540 | significantly (p≤0.05) thicker | No relevant changes | did not significantly differ | well tolerated without apparent adverse reactions | significantly increased | did not improve and even aggravated
3 | CCCCC/C=C\C/C=C\CCCCCCCC(=O)O [H-LA, linoleic acid] | 14.2 |  |  | significantly higher |  |  |  |  |  |  |  |  |  | 

From patent US12576059B2, “Methods and compositions for treatment of inflammatory disease” (priority 2021, dated 2026)
